In ChEMBL document CHEMBL4396963, “An exploration of solvent-front region high affinity moiety leading to novel potent ALK & ROS1 dual inhibitors with mutant-combating effects” (Bioorg Med Chem, 2019):

What was measured:
KARPAS-299 = assay: Antiproliferative activity against human KARPAS299 cells assessed as reduction in cell viability incubated for 72 hrs by MTT assay; format: functional, cell-based; conditions: KARPAS-299, 72 h
NCI-H2228 = assay: Antiproliferative activity against human NCI-H2228 cells assessed as reduction in cell viability incubated for 72 hrs by MTT assay; format: functional, cell-based; conditions: NCI-H2228, 72 h
A549 [1] = assay: cells; conditions: Homo sapiens, A549, 72 h
HT-29 = assay: cells; conditions: Homo sapiens, HT-29, 72 h
Description: Antiproliferative activity against human HT-29 cells assessed as reduction in cell viability incubated for 72 hrs by MTT assay

HCC78 = assay: Antiproliferative activity against human HCC78 cells assessed as reduction in cell viability incubated for 72 hrs by MTT assay; format: functional, cell-based; conditions: HCC78, 72 h
A549 [2] = assay: Antiproliferative activity against human A549 cells harbouring […] mutant assessed as reduction in cell viability incubated for 72 hrs by MTT assay; format: functional, cell-based; conditions: A549, 72 h
[3] = target: Hepatocyte growth factor receptor (Homo sapiens, UniProt P08581); assay: Inhibition of recombinant human N-terminal GST-tagged MET (956 to 1390 residues) cytoplasmic domain expressed in baculovirus expression system using Srctide as substrate incubated for 1 hr by mobility shift assay
Hepatocyte growth factor receptor, sequence (P08581 whole entry, the tested form may be a part): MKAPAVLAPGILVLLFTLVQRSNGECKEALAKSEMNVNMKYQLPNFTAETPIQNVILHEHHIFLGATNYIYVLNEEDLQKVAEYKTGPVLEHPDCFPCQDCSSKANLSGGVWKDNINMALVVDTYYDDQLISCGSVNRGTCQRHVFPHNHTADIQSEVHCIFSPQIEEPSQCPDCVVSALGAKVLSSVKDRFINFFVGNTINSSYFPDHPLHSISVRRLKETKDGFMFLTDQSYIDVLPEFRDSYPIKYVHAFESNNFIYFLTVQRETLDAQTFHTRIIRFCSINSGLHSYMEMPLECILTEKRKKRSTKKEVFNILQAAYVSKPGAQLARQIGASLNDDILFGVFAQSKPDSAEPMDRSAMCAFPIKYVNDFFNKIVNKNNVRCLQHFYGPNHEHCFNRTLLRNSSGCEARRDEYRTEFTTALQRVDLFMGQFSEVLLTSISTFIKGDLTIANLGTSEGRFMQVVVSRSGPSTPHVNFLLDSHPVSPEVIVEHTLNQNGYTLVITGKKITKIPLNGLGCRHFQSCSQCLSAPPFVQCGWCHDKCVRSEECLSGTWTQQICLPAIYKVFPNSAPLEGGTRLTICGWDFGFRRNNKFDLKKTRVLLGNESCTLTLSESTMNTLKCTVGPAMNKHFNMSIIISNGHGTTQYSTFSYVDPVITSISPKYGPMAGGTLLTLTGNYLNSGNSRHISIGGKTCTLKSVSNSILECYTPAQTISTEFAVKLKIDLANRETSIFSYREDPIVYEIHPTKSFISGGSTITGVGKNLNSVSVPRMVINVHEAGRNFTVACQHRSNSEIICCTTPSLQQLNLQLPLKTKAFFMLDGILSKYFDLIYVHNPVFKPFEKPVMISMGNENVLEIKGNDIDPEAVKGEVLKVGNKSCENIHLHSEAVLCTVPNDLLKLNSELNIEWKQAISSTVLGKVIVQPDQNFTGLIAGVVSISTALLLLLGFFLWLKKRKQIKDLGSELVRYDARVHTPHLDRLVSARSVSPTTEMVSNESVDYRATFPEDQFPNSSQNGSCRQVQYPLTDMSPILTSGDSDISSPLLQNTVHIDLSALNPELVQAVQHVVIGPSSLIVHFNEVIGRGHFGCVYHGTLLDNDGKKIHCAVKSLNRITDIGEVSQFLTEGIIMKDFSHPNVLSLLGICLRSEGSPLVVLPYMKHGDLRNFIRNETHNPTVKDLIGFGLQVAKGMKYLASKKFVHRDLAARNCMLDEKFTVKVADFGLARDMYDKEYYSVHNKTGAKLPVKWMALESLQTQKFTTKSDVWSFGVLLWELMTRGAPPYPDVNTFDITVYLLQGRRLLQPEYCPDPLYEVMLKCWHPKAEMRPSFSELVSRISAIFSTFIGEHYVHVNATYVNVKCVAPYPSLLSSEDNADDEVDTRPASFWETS

SMILES	IC50 (KARPAS-299) [µM]	IC50 (NCI-H2228) [µM]	IC50 (A549 [1]) [µM]	IC50 (HT-29) [µM]	IC50 (HCC78) [µM]	IC50 (A549 [2]) [µM]	IC50 [3] [µM]
COc1cc(NC(=O)NC2CCCCC2)ccc1Nc1ncc(Cl)c(Nc2ccccc2NC(C)=O)n1	0.72	0.46	> 10	> 10	0.51	1.54	
COc1cc(NC(=O)N2CCC(C(=O)O)CC2)ccc1Nc1ncc(Cl)c(Nc2ccccc2NC(C)=O)n1	1.08	1.85	> 10	3.61	0.39	0.97	
COc1cc(N2C(=O)CCC2=O)ccc1Nc1ncc(Cl)c(Nc2ccccc2NC(C)=O)n1	0.21	0.63	> 10	> 10	0.39	0.61	
COc1cc(NC2=CC(=O)CCC2)ccc1Nc1ncc(Cl)c(Nc2ccccc2NC(C)=O)n1	1.03	1.64	5.19	> 10	0.23	1.11	
COc1cc(NC(=O)NCCCN2CCCC2)ccc1Nc1ncc(Cl)c(Nc2ccccc2NC(C)=O)n1	0.29	0.72	2.97	> 10	0.11	1.02	
COc1cc(NC(=O)NN2CCOCC2)ccc1Nc1ncc(Cl)c(Nc2ccccc2NC(C)=O)n1	0.34	0.23	> 10	2.25	0.31	1.49	
COc1cc(NC(=O)N2CCN(C)CC2)ccc1Nc1ncc(Cl)c(Nc2ccccc2NC(C)=O)n1	0.049	0.17	4.59	> 10	0.39	0.44	
COc1cc(NC(=O)NC2CCN(C(=O)OC(C)(C)C)CC2)ccc1Nc1ncc(Cl)c(Nc2ccccc2NC(C)=O)n1	1.02	0.84	> 10	5.51	0.17	1.83	
COc1cc(NC(=O)N2CCSCC2)ccc1Nc1ncc(Cl)c(Nc2ccccc2NC(C)=O)n1	0.21	0.57	> 10	> 10	0.17	2.36	
Cc1cc(Nc2ncc(Cl)c(Nc3ccccc3S(=O)(=O)C(C)C)n2)c(OC(C)C)cc1C1CCNCC1 [CERITINIB]	0.037	0.045	1.43	1.03	0.039	0.51	0.271
COc1cc(NC(=O)NC2CC2)ccc1Nc1ncc(Cl)c(Nc2ccccc2NC(C)=O)n1	0.89	0.81	> 10	> 10	0.87	0.71	
COc1cc(NC(=O)N2CC(O)C2)ccc1Nc1ncc(Cl)c(Nc2ccccc2NC(C)=O)n1	0.27	0.73	> 10	4.15	0.49	1.07	
COc1cc(NC(=O)N2CCCCC2)ccc1Nc1ncc(Cl)c(Nc2ccccc2NC(C)=O)n1	0.24	0.64	> 10	> 10	0.21	0.97	
COc1cc(NC(=O)NC2CCCC2)ccc1Nc1ncc(Cl)c(Nc2ccccc2NC(C)=O)n1	0.84	0.47	> 10	6.57	0.61	0.74	
COc1cc(N2CCCCC2=O)ccc1Nc1ncc(Cl)c(Nc2ccccc2NC(C)=O)n1	0.31	0.53	> 10	> 10	0.66	1.07	
COC(=O)C1=C(Nc2ccc(Nc3ncc(Cl)c(Nc4ccccc4NC(C)=O)n3)c(OC)c2)CCC1	4.3	2.94	> 10	> 10	0.87	1.81	
COc1cc(NC(=O)N2CCC(C)CC2)ccc1Nc1ncc(Cl)c(Nc2ccccc2NC(C)=O)n1	0.17	0.61	> 10	3.25	0.53	1.27	
COc1cc(NC(=O)C2CCN(C(=O)OC(C)(C)C)CC2)ccc1Nc1ncc(Cl)c(Nc2ccccc2NC(C)=O)n1	0.51	1.73	5.31	> 10	0.61	1.37	
COc1cc(N2CCC2=O)ccc1Nc1ncc(Cl)c(Nc2ccccc2NC(C)=O)n1	0.66	0.74	2.15	5.57	0.23	0.65	
COc1cc(NC2CCCCC2)ccc1Nc1ncc(Cl)c(Nc2ccccc2NC(C)=O)n1	0.87	0.57	> 10	4.73	0.39	2.17	
COc1cc(NC(=O)NCCCN2CCOCC2)ccc1Nc1ncc(Cl)c(Nc2ccccc2NC(C)=O)n1	0.49	0.78	3.1	> 10	0.27	1.1	
COc1cc(NC2CCCC2)ccc1Nc1ncc(Cl)c(Nc2ccccc2NC(C)=O)n1	1.05	0.97	> 10	> 10	0.67	1.02	
COc1cc(NC(=O)N2CCN(C(=O)OC(C)(C)C)CC2)ccc1Nc1ncc(Cl)c(Nc2ccccc2NC(C)=O)n1	1.12	0.93	2.31	3.11	0.23	1.17	
CCOC(=O)C1=C(Nc2ccc(Nc3ncc(Cl)c(Nc4ccccc4NC(C)=O)n3)c(OC)c2)CCC1	5.04	2.53	> 10	> 10	0.92	3.13	
COc1cc(NC(=O)N[C@H]2CC[C@H](C)CC2)ccc1Nc1ncc(Cl)c(Nc2ccccc2NC(C)=O)n1	0.83	0.53	4.12	> 10	0.41	2.41	
CCOC(=O)[C@@H]1CCCN(C(=O)Nc2ccc(Nc3ncc(Cl)c(Nc4ccccc4NC(C)=O)n3)c(OC)c2)C1	0.59	0.6	2.57	> 10	0.67	1.55	
CCOC(=O)C1CCN(C(=O)Nc2ccc(Nc3ncc(Cl)c(Nc4ccccc4NC(C)=O)n3)c(OC)c2)CC1	0.45	1.21	1.72	> 10	0.87	0.94	
COc1cc(NC(=O)N2CCC2)ccc1Nc1ncc(Cl)c(Nc2ccccc2NC(C)=O)n1	0.39	0.34	2.45	6.77	0.56	1.16	
COc1cc(NC(=O)N[C@H]2CC[C@H](O)CC2)ccc1Nc1ncc(Cl)c(Nc2ccccc2NC(C)=O)n1	0.34	0.55	2.3	> 10	0.095	1.23	
